How the values were obtained:
Format in all cases: in vivo
[1] = test system: Alopecurus myosuroides (ALOMY); experiment: Example A pre-emergence herbicidal test, ALOMY; details: rate 500 g/ha, evaluated 19 or 20 days after spraying
Protocol: (§1) Seeds of a variety of test species were sown in standard soil in pots. After cultivation for one day (pre-emergence) or after 10 days cultivation (post-emergence) under controlled conditions in a glasshouse, the plants were sprayed with an aqueous spray solution derived from the formulation of the technical active ingredient in 0.6 ml acetone and 45 ml formulation solution containing 10.6% Emulsogen EL (Registry number 61791-12-6), 42.2% N-methylpyrrolidone, 42.2% dipropylene glycol monomethyl ether (Registry number 34590-94-8) and 0.2% X-77 (Registry number 11097-66-8). The test plants were then grown in a greenhouse under optimum conditions until, 14 or 15 days later for post-emergence and 19 or 20 days for pre-emergence, the test was evaluated (100=total damage to plant; 0=no damage to plant). Alopecurus myosuroides (ALOMY), Avena fatua (AVEFA), Lolium perenne (LOLPE), Setaria faberi (SETFA), Digitaria sanguinalis (DIGSA), Echinochloa crus-galli (ECHCG) Pre-Emergence Activity

[2] = test system: Avena fatua (AVEFA); experiment: Example A pre-emergence herbicidal test, AVEFA; details: rate 500 g/ha, evaluated 19 or 20 days after spraying
Protocol: as §1

[3] = test system: Lolium perenne (LOLPE); experiment: Example A pre-emergence herbicidal test, LOLPE; details: rate 500 g/ha, evaluated 19 or 20 days after spraying
Protocol: as §1

[4] = test system: Setaria faberi (SETFA); experiment: Example A pre-emergence herbicidal test, SETFA; details: rate 500 g/ha, evaluated 19 or 20 days after spraying
Protocol: as §1

[5] = test system: Digitaria sanguinalis (DIGSA); experiment: Example A pre-emergence herbicidal test, DIGSA; details: rate 500 g/ha, evaluated 19 or 20 days after spraying
Protocol: as §1

[6] = test system: Echinochloa crus-galli (ECHCG); experiment: Example A pre-emergence herbicidal test, ECHCG; details: rate 500 g/ha, evaluated 19 or 20 days after spraying
Protocol: as §1

[7] = test system: Alopecurus myosuroides (ALOMY); experiment: Example A post-emergence herbicidal test, ALOMY; details: rate 125 g/ha, evaluated 14 or 15 days after spraying
Protocol: as §1, with “Post-Emergence” for “Pre-Emergence”

[8] = test system: Avena fatua (AVEFA); experiment: Example A post-emergence herbicidal test, AVEFA; details: rate 125 g/ha, evaluated 14 or 15 days after spraying
Protocol: as §1, with “Post-Emergence” for “Pre-Emergence”

[9] = test system: Lolium perenne (LOLPE); experiment: Example A post-emergence herbicidal test, LOLPE; details: rate 125 g/ha, evaluated 14 or 15 days after spraying
Protocol: as §1, with “Post-Emergence” for “Pre-Emergence”

[10] = test system: Setaria faberi (SETFA); experiment: Example A post-emergence herbicidal test, SETFA; details: rate 125 g/ha, evaluated 14 or 15 days after spraying
Protocol: as §1, with “Post-Emergence” for “Pre-Emergence”

[11] = test system: Digitaria sanguinalis (DIGSA); experiment: Example A post-emergence herbicidal test, DIGSA; details: rate 125 g/ha, evaluated 14 or 15 days after spraying
Protocol: as §1, with “Post-Emergence” for “Pre-Emergence”

[12] = test system: Echinochloa crus-galli (ECHCG); experiment: Example A post-emergence herbicidal test, ECHCG; details: rate 125 g/ha, evaluated 14 or 15 days after spraying
Protocol: as §1, with “Post-Emergence” for “Pre-Emergence”

CCc1cc(C)cc(CC)c1C1C(=O)CC(CC2CCOCC2)C1=O (stereo not drawn) [Compound T1]
Pre-Emergence Activity ALOMY (100=total damage to plant; 0=no damage to plant) [1]: 100 | Pre-Emergence Activity AVEFA (100=total damage to plant; 0=no damage to plant) [2]: 90 | Pre-Emergence Activity LOLPE (100=total damage to plant; 0=no damage to plant) [3]: 100 | Pre-Emergence Activity SETFA (100=total damage to plant; 0=no damage to plant) [4]: 70 | Pre-Emergence Activity DIGSA (100=total damage to plant; 0=no damage to plant) [5]: 100 | Pre-Emergence Activity ECHCG (100=total damage to plant; 0=no damage to plant) [6]: 80 | Post-Emergence Activity ALOMY (100=total damage to plant; 0=no damage to plant) [7]: 100 | Post-Emergence Activity AVEFA (100=total damage to plant; 0=no damage to plant) [8]: 90 | Post-Emergence Activity LOLPE (100=total damage to plant; 0=no damage to plant) [9]: 100 | Post-Emergence Activity SETFA (100=total damage to plant; 0=no damage to plant) [10]: 70 | Post-Emergence Activity DIGSA (100=total damage to plant; 0=no damage to plant) [11]: 100 | Post-Emergence Activity ECHCG (100=total damage to plant; 0=no damage to plant) [12]: 100

CCc1ccc(-c2ccc(Cl)cc2)cc1C1C(=O)CC(CC2CCOCC2)C1=O (stereo not drawn) [Compound T2]
Pre-Emergence Activity ALOMY (100=total damage to plant; 0=no damage to plant) [1]: 70 | Pre-Emergence Activity AVEFA (100=total damage to plant; 0=no damage to plant) [2]: 10 | Pre-Emergence Activity LOLPE (100=total damage to plant; 0=no damage to plant) [3]: 90 | Pre-Emergence Activity SETFA (100=total damage to plant; 0=no damage to plant) [4]: 70 | Pre-Emergence Activity DIGSA (100=total damage to plant; 0=no damage to plant) [5]: 80 | Pre-Emergence Activity ECHCG (100=total damage to plant; 0=no damage to plant) [6]: 70 | Post-Emergence Activity ALOMY (100=total damage to plant; 0=no damage to plant) [7]: 80 | Post-Emergence Activity AVEFA (100=total damage to plant; 0=no damage to plant) [8]: 40 | Post-Emergence Activity LOLPE (100=total damage to plant; 0=no damage to plant) [9]: 20 | Post-Emergence Activity SETFA (100=total damage to plant; 0=no damage to plant) [10]: 100 | Post-Emergence Activity DIGSA (100=total damage to plant; 0=no damage to plant) [11]: 100 | Post-Emergence Activity ECHCG (100=total damage to plant; 0=no damage to plant) [12]: 100
